Our source for the GI50 and TGI values is PubChem BioAssay (NCI).

Structures are written as SMILES.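 In this assay, cells in 96-well plates receive the compound at five concentrations for 48 hours. Endpoints are linearly interpolated between the surrounding concentrations. At the GI50, growth is halved. At the TGI there is no net growth.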 A value given as a limit tells only on which side of the number the result lay.

A word on the GI50: it is the concentration at which growth is held to half of that of the control. In general, TGI refers to the concentration giving total growth inhibition.

Test systems include SR leukemia; PC-3 prostate; RPMI-8226 leukemia; K-562 leukemia; OVCAR-4 ovarian; HOP-92 NSCLC; RXF 393 renal; SK-OV-3 ovarian; UACC-62 melanoma; LOX IMVI melanoma.
What all share (assay): DTP human tumour cell line panel, 48 h

`CN(C)c1ccc(/C=C/C2=[N+](C)c3ccccc3C2(C)C)cc1`: the GI50 was 0.13 µM in the experiment on SR leukemia; 0.235 µM in the experiment with PC-3 prostate; 0.247 µM with RPMI-8226 leukemia; 0.512 µM in the experiment with K-562 leukemia; 1.63 µM with OVCAR-4 ovarian; 1.8 µM in the experiment with HOP-92 NSCLC. The GI50 was 2.26 µM with RXF 393 renal, 0.729 µM in the experiment on SK-OV-3 ovarian, 1.36 µM with UACC-62 melanoma and 0.339 µM with LOX IMVI melanoma. Moreover, the concentration for total growth inhibition (TGI) with SR leukemia is 13.9 µM; in the experiment with PC-3 prostate it was 13.8 µM; in the experiment with RPMI-8226 leukemia, 3.48 µM; in the experiment on K-562 leukemia, above 100 µM; in the experiment with OVCAR-4 ovarian it was 31.5 µM; with HOP-92 NSCLC, 9.03 µM. Also, the TGI worked out at 16.8 µM with RXF 393 renal, 4.19 µM with SK-OV-3 ovarian, 19.2 µM in the experiment with UACC-62 melanoma and 10.6 µM in the experiment with LOX IMVI melanoma.
Regarding `O=C1c2cc([N+](=O)[O-])ccc2-c2ccc3c4ccc5c6c(ccc(c7ccc1c2c73)c64)C(=O)c1cc([N+](=O)[O-])ccc1-5`, the TGI with SR leukemia, in the experiment on PC-3 prostate, in the experiment with RPMI-8226 leukemia, with K-562 leukemia, in the experiment on OVCAR-4 ovarian and in the experiment with HOP-92 NSCLC was above 100 µM throughout. Further, the concentration for total growth inhibition (TGI) in the experiment with RXF 393 renal, in the experiment on SK-OV-3 ovarian, in the experiment with UACC-62 melanoma and in the experiment on LOX IMVI melanoma was above 100 µM each time.
Turning to `COc1cc(C(=O)N/N=C/c2ccc(N(C)C)cc2)cc(OC)c1OC`, the concentration for 50% growth inhibition (GI50) in the experiment with SR leukemia is 0.287 µM; in the experiment with PC-3 prostate, 0.422 µM; with RPMI-8226 leukemia it was 0.344 µM; with K-562 leukemia, 0.353 µM; in the experiment on OVCAR-4 ovarian, 0.824 µM; with HOP-92 NSCLC, 0.143 µM. Moreover, the GI50 with RXF 393 renal is 0.234 µM; with SK-OV-3 ovarian, 0.478 µM; in the experiment on UACC-62 melanoma, 0.417 µM; in the experiment on LOX IMVI melanoma it was 0.736 µM. For the same compound, the TGI in the experiment with PC-3 prostate was above 100 µM; in the experiment with K-562 leukemia, above 100 µM; in the experiment with OVCAR-4 ovarian, above 100 µM; in the experiment on HOP-92 NSCLC, 2.28 µM; in the experiment with SK-OV-3 ovarian, above 31.1 µM; in the experiment on UACC-62 melanoma, above 100 µM. For the same compound, the TGI in the experiment with LOX IMVI melanoma is above 100 µM.
As to `N#C[Se]CCCNS(=O)(=O)C1CC2C=CC1C2` (stereo unspecified), the GI50 with SR leukemia is 0.57 µM; with PC-3 prostate, 0.704 µM; in the experiment on RPMI-8226 leukemia, 2.17 µM; with K-562 leukemia, 1.78 µM; with OVCAR-4 ovarian, 1.48 µM; in the experiment with HOP-92 NSCLC it was 1.17 µM. Further, the 50% growth inhibitory concentration (GI50) in the experiment with RXF 393 renal was 0.364 µM; in the experiment on SK-OV-3 ovarian it was 2.77 µM; with UACC-62 melanoma it was 1.59 µM; in the experiment on LOX IMVI melanoma, 0.186 µM. Besides, the TGI in the experiment on SR leukemia is above 100 µM; with PC-3 prostate, 3.83 µM; in the experiment with RPMI-8226 leukemia, 5.55 µM; in the experiment with K-562 leukemia, above 41.6 µM; in the experiment with OVCAR-4 ovarian, 8.57 µM; in the experiment with HOP-92 NSCLC, 2.7 µM. Also, the TGI in the experiment with RXF 393 renal was 1.34 µM; in the experiment with SK-OV-3 ovarian, 5.65 µM; in the experiment on UACC-62 melanoma, 3.38 µM; with LOX IMVI melanoma, 0.376 µM.
`Cn1c(=O)c(Oc2ccc(F)cc2F)cc2cnc(NC3CCS(=O)(=O)CC3)nc21`: the GI50 in the experiment on SR leukemia was above 25 µM; in the experiment with PC-3 prostate, above 25 µM; with RPMI-8226 leukemia, above 25 µM; in the experiment with K-562 leukemia, above 25 µM; with OVCAR-4 ovarian it was above 25 µM; in the experiment on HOP-92 NSCLC, 5.23 µM. Besides, the GI50 was above 25 µM with RXF 393 renal, above 20 µM with SK-OV-3 ovarian, above 25 µM in the experiment on UACC-62 melanoma and above 25 µM in the experiment with LOX IMVI melanoma. Besides, the TGI with SR leukemia, in the experiment on PC-3 prostate, with RPMI-8226 leukemia, in the experiment on K-562 leukemia, with OVCAR-4 ovarian and with HOP-92 NSCLC was above 25 µM each time. The TGI in the experiment with RXF 393 renal, in the experiment with SK-OV-3 ovarian, with UACC-62 melanoma and in the experiment with LOX IMVI melanoma was above 25 µM each time.
Turning to `Cc1cc(C(C)(C)C)cc(CNC2CCCCC2)c1O`, the TGI with SR leukemia came out at 53.6 µM; with PC-3 prostate, 31 µM; in the experiment on RPMI-8226 leukemia it was 45.5 µM; in the experiment on K-562 leukemia it was 51.3 µM; in the experiment on OVCAR-4 ovarian, 51.5 µM; in the experiment with HOP-92 NSCLC it was 29.3 µM. For the same compound, the concentration for total growth inhibition (TGI) came out at 12.6 µM in the experiment on RXF 393 renal, 41.9 µM in the experiment on SK-OV-3 ovarian, 29.6 µM with UACC-62 melanoma and 29.5 µM in the experiment on LOX IMVI melanoma.
For the compound `COc1ccc(C2=NN(C(=O)c3cc(OC)c(OC)c(OC)c3)C(c3ccc(N(C)C)cc3)C2)cc1` (stereo unspecified), the GI50 in the experiment with SR leukemia was 0.426 µM; with PC-3 prostate it was 0.529 µM; with RPMI-8226 leukemia it was 0.663 µM; with K-562 leukemia it was 0.551 µM; in the experiment with OVCAR-4 ovarian it was 0.548 µM; in the experiment with HOP-92 NSCLC it was 0.886 µM. In addition, the GI50 in the experiment with RXF 393 renal was 0.252 µM; in the experiment on SK-OV-3 ovarian it was 0.463 µM; with UACC-62 melanoma, 0.496 µM; in the experiment on LOX IMVI melanoma, 0.549 µM. In addition, the concentration for total growth inhibition (TGI) was above 100 µM with PC-3 prostate; above 20 µM in the experiment with RPMI-8226 leukemia; above 100 µM in the experiment on K-562 leukemia; above 100 µM with OVCAR-4 ovarian; above 100 µM in the experiment with HOP-92 NSCLC; 0.723 µM with RXF 393 renal. Moreover, the TGI with SK-OV-3 ovarian was 58.2 µM; in the experiment on UACC-62 melanoma it was above 100 µM; with LOX IMVI melanoma, above 100 µM.
